Where a name gives a salt, the structure may show the parent alone.
Experiments:
[1] = tested on: histamine induced paw oedema; assay: Histamine induced paw oedema (rat histamine paw oedema test); format: in vivo, male Sprague-Dawley rats; details: 1.0 mg/kg, intraperitoneally 15 minutes before anaesthetics; paw swelling 20 minutes after histamine, water plethysmography
Description: Compounds of formula I may be used to treat all painful, hyperalgesic and/or inflammatory conditions in which C-fibres play a pathophysiological role by eliciting neurogenic pain or inflammation, i.e.: The rat histamine paw oedema test was performed essentially as described by Amann et al. (Europ. J. Pharmacol. 279, 227-231, 1995). In brief 250-300 g male Sprague-Dawley rats were anaesthetized with pentobarbital sodium, and placed on a 32 degree (Celsius) heated table. Ten minutes later histamine (50 micoliter, 3 mg/ml) was injected in the right hind paw and 20 minutes hereafter the paw swelling was determined by water plethysmography (Ugo Basile). Test compounds were administered intraperitoneally at 15 minutes before the anaesthetics. Values for inhibition of histamine induced oedema response for some representative compounds are recorded in table 1.

SMILES	melting point	% Oedema inhibition [1]
CC(CN1c2ccccc2CCc2ccccc21)CN1CCCCC1C(=O)O (as salt: hydrochloride) (hydrate or solvate) [Example 3, 1-(3-(10,11-Dihydro-5H-dibenzo[b,f]azepin-5-yl)-(2R)-methyl-1-propyl)-(2R)-piperidinecarboxylic Acid Hydrochloride]	201 to 216 °C	–
CC(CN1c2ccccc2CCc2ccccc21)N1CCC[C@@H](C(=O)O)C1.Cl (stereo partly drawn) (hydrate or solvate)	213 to 223 °C	–
O=C(O)[C@@H]1CCCN(CC#CCN2c3ccccc3CCc3ccccc32)C1 (hydrate or solvate) [Example 10, (R)-1-(4-(10,11-Dihydro-5H-dibenzo[b,f]azepin-5-yl)-2-butyn-1-yl)-3-piperidinecarboxylic Acid]	153 to 154 °C	–
CC(CN1c2ccccc2CCc2ccccc21)CN1CCCCC1C(=O)O [Example 3, 1-(3-(10,11-Dihydro-5H-dibenzo[b,f]azepin-5-yl)-(2R)-methyl-1-propyl)-(2R)-piperidinecarboxylic Acid Hydrochloride]	–	47%
CCCC(CN1CCC[C@@H](C(=O)O)C1)CN1c2ccccc2CCc2ccccc21.Cl (stereo partly drawn) (hydrate or solvate)	116 to 120 °C	–
O=C(O)[C@@H]1CCCN(C(=O)CC=C2c3ccccc3CCc3ccccc32)C1 [Example 5, 1-(3-(10,11-Dihydro-5H-dibenzo[a,d]cyclohepten-5-ylidene)-1-propionyl)-(3R)-piperidinecarboxylic Acid]	71 to 76 °C	–
Cl.O=C(O)[C@@H]1CCCN(C/C=C\CN2c3ccccc3CCc3ccccc32)C1 [Example 4, 1-(4-(10,11-Dihydro-5H-dibenzo[b,f]azepin-5-yl)-(2Z)-butenyl)-(3R)-piperidinecarboxylic Acid Hydrochloride]	–	26%
CC(CCN1c2ccccc2CCc2ccccc21)N1CCC[C@@H](C(=O)O)C1.Cl (stereo partly drawn) (hydrate or solvate)	214 to 218 °C	–

Now from value to compound, other results behind:

melting point	SMILES	% Oedema inhibition [1]
167 to 175 °C	Cl.O=C(O)[C@@H]1CCCN(Cc2ccc(C3c4ccccc4CCc4ccccc43)cc2)C1	–
180 to 183 °C	Cl.O=C(O)[C@@H]1CCCN(CCC(=O)N2c3ccccc3CCc3ccccc32)C1 (hydrate or solvate)	–
151 to 155 °C	CC(CN1CCC[C@@H](C(=O)O)C1)=C1c2ccccc2CCc2ccccc21.Cl (hydrate or solvate)	–
187 to 190 °C	CN(CCN1CCC[C@@H](C(=O)O)C1)C1c2ccccc2CCc2ccccc21 (hydrate or solvate) [Example 30, (R)-1-(2-(N-(10,11-dihydro-5H-dibenzo[a,d]cyclohepten-5-yl)-N-methylamino)ethyl)-3-piperidinecarboxylic Acid]	–

Source: patent US6569849B1, “N-Substituted azaheterocyclic compounds” (Novo Nordisk A/S, priority 1996, dated 2003)
